The values that follow come from PMC11793105, “A kalihinol analog disrupts apicoplast function and vesicular trafficking in P. falciparum malaria” (Science (New York, N.Y.), 2024).

Test [1] has as its system P. falciparum metabolites. The experiment in a line: LC-MS metabolomic profiling (lipids and polar metabolites). Type of test: cell-based, Plasmodium falciparum. Particulars: treated parasites, second IEC (72 hours after treatment).
Test [2] relates to P. falciparum. As to conditions: several P. falciparum drug-sensitive and drug-resistant strains; earlier study; read-out: IC50 (median inhibitory concentration); cited from earlier work.
Test [3] has as its system P. falciparum Dd2 (MRA-156). Briefly: SYBR Green I growth inhibition assay, Dd2. In kind it is cell-based. Particulars: Plasmodium falciparum. The procedure:
(§1) Fig. 1. […] (B) SYBR Green–based dose response assays were conducted on early-ring stage parasites (6 hours after invasion). […] 3D7 WT (blue), NF54 (green), drug-resistant strains Dd2 (red), HB3 (black), W2 (gray), and D10-ACP-GFP (purple) lines (Sigmoidal, 4PL, X is concentration, n ≥ 3, nonlinear regression, CI: 95%). (C) Schematic diagram of the development of P. falciparum after two consecutive erythrocytic cycles. The time points at which MED6-189 was introduced are depicted in green. HPS, hours post synchronization. […] The images depict various developmental stages of the parasite’s intraerythrocytic life cycle. Bordered images represent time points when drug was first introduced (n = 3 biological replicates, P < 0.05).
(§2) Detailed information on materials and methods is available in the supplementary materials. […] P. knowlesi assays were quantitatively measured by flow cytometry using SYBR Green I and Mitrotracker Deep Red, as previously described ([84], [85]), on a Beckman Coulter CytoFLEX. […]
(§3) P. falciparum in vitro SYBR green fluorescence-based assays The anti-malarial activity of individual analogues were evaluated in-vitro against P. falciparum 3D7 (MRA-102, drug […]
(§4) green-I based fluorescence assay. Parasite growth rate and stages of development were determined via microscopy through Giemsa-stained smears of the cultures. […]

Test [4] deals with P. knowlesi YH1 human erythrocyte infecting parasites. Briefly: P. knowlesi in vitro IC50 assay (flow cytometry), human erythrocytes. As to conditions: Plasmodium knowlesi. In kind it is cell-based. The procedure: Fig. 5. In vivo and broad-spectrum antimalarial efficacy of MED6-189. (A) The in vivo efficacy of MED6-189 was evaluated in a humanized mouse model infected with P. falciparum (blue) compared with untreated controls (black). […] The graphs illustrate the logarithmic growth of parasites (y axis) in response to varying drug concentrations (x axis). Error bars represent standard deviations from two independent experiments conducted in triplicate. The regression line is derived from a nonlinear regression analysis (variable slope with four parameters, least squares fit). (C) Proposed mode of action of MED6-189 in P. falciparum–infected erythrocytes. […]
as §2, §3, §4

The test system of test [5] is P. falciparum D10-ACP-GFP (MRA-568). The experiment in a line: SYBR Green I growth inhibition assay, D10-ACP-GFP. Type of test: cell-based, Plasmodium falciparum. As to conditions: early-ring stage, 72 h exposure. The procedure: as §1, with “Bordered images represent time points when drug was first introduced (n = 3 biological replicates, P < 0.05).” left out
Fluorescence microscopy analyses were conducted using D10-ACP-GFP transgenic parasites, which express a fusion of the acyl carrier protein (ACP) with green fluorescent protein (GFP) in the parasite apicoplast ([25]). […]
as §2, §3
green-I based fluorescence assay. […]

The test system of test [6] is P. falciparum. The experiment in a line: Drug-drug interaction (fractional inhibitory concentration, isobologram) assay. In kind it is cell-based, Plasmodium falciparum. The text has this:
(§5) Fig. 2. […] Nuclei are stained with 4’,6-diamidino-2-phenylindole (DAPI; blue). […] (B) Dose-dependent interactions between MED6-189 (blue) and various antimalarials with known mechanisms of action (red). […] The regression line represents a nonlinear regression (variable slope with four parameters), with significant differences considered if P < 0.05. […] Isobologram curves are expected to be parallel to the diagonal for additive drug pairs, concave for synergistic drug pairs, and convex for antagonistic drug pairs. […] The analysis was performed using a two-way ANOVA, n = 3, with P < 0.05 significance.

Test [7] has as its system P. falciparum 3D7 parasites. Briefly: Isopentenyl pyrophosphate (IPP) rescue assay. Particulars: drug at IC80 for one IEC before IPP (200 μM). In kind it is cell-based, Plasmodium falciparum.
Excerpt: as §5
IPP is a product of the MEP/DOXP pathway, and its supplementation reduces susceptibility to MEP inhibitors. […] Parasites were drugged at 80% inhibitory concentrations (IC80) for one IEC before IPP (200 μM) supplementation.

Structures are written as SMILES. Where two headings read alike, the source gives them in different places.

Consider `[C-]#[N+][C@]1(C)CC[C@H]2[C@@H]([C@@H](C(C)C)CC[C@]2(C)[N+]#[C-])[C@H]1O` [MED6-189], for which the “increase in lysophosphatidylcholine (LPC) steady-state levels” value in test [1] is given as roughly 3.5 fold. Moreover, the IC50 was less than 50 nM in the test with P. falciparum [2]; 0.047 ± 0.007 µM in test [3] (DD2, 72 h); 0.017 µM in test [3] (DD2, read-out: IC50 (µM) P. falciparum (Dd2)); 309 ± 42 nM in test [4]; 17 nM in test [5] (Plasmodium falciparum, D10, 72 h); 17.2 nM in test [5]. Further, the FIC score with P. falciparum [6] (MED6-189 in combination with atovaquone (additive)) is reported as 0.91 ± 0.2; with P. falciparum [6] (MED6-189 in combination with chloroquine (additive)), 1.71 ± 0.4. Also, in test [7], the “rescue of parasites by IPP supplementation” value was “can only be rescued by IPP for one additional cycle”.
